From US12297482B2, “Rapid cell culture test device designed such that fluid films with uniform thickness are formed” (priority 2020, dated 2025)

Key:
P. aeruginosa ATCC 27853 = test: Antibiotic susceptibility testing using the cell culture test device (DRAST), time-lapse colony observation; conditions: reference strain, observed until 6 h
Enterobacter cloacae [1] = test: Susceptibility testing of blood-sample strain using the cell culture test device (DRAST); type: cell-based; set-up: key: susceptible (S); intermediate resistance (I); resistance (R); conditions: strain from blood sample
Source text: (§1) The liquid medium usually […].

Enterobacter cloacae [2] = test: Susceptibility testing of blood-sample strain by broth microdilution (BMD); type: cell-based; set-up: key: susceptible (S); intermediate resistance (I); resistance (R); conditions: BMD testing method, strain from blood sample
Method: The tests were conducted on various drugs that are currently used in testing organizations. […] Accordingly, these test results are all classified as minor errors of the first step judgement.

Enterococcus faecium [3] = test: as above; type: cell-based; set-up: key: susceptible (S); intermediate resistance (I); resistance (R); conditions: BMD testing method, strain from blood sample
Method: The tests were conducted on various drugs that are currently used in testing organizations. […] Staphylococcus aureus, Staphylococcus epidermidis, Enterococcus faecalis, and Enterococcus faecium were detected in four blood samples. The test results on S. aureus and S. epidermidis in the BMD testing method were in good agreement with those in the testing method using the cell culture test device (DRAST) of the present disclosure.
Accordingly, these test results are all classified as minor errors of the first step judgement. […] The concentrations shown in FIG. 16 are expressed in μg/mL.

Enterococcus faecium [4] = test: Susceptibility testing of blood-sample strain using the cell culture test device (DRAST); type: cell-based; set-up: key: susceptible (S); intermediate resistance (I); resistance (R); conditions: strain from blood sample
Source text: as §1
For example, the biological agent may be a culture of blood collected from a human infected with bacteria, i.e. a culture of blood positive for bacterial infection. In this case, a liquid medium stimulating the division of only the bacterial cells can be used to distinguish the bacterial cells from the blood cells based on their different sizes. The biological agent positive for bacterial infection may be collected and diluted with the gelling agent-containing liquid medium. Thus, there is no need to separate the bacteria from the blood sample, shortening the test time.

E. faecalis ATCC 29212 = test: Antibiotic susceptibility testing using the cell culture test device (DRAST), time-lapse colony observation; conditions: reference strain, observed until 6 h
S. aureus ATCC 29213 = test: as above; conditions: reference strain, observed until 6 h

## C[C@H]1[C@H](NC(=O)/C(=N\OC(C)(C)C(=O)O)c2csc(N)n2)C(=O)N1S(=O)(=O)O [aztreonam]
P. aeruginosa ATCC 27853
  MIC of the antibiotic against P. aeruginosa ATCC 27853: 8.0 mg/L

## C[C@@H](O)[C@H]1C(=O)N2C(C(=O)O)=C(S[C@@H]3CN[C@H](C(=O)Nc4cccc(C(=O)O)c4)C3)[C@H](C)[C@H]12 [ertapenem]
Enterobacter cloacae [1]
  susceptibility category (S/I/R) of E. cloacae: I
Enterobacter cloacae [2]
  susceptibility category (S/I/R) of E. cloacae: R

## CC(=O)NC[C@H]1CN(c2ccc(N3CCOCC3)c(F)c2)C(=O)O1 [linezolid]
Enterococcus faecium [3]
  susceptibility category (S/I/R) of E. faecium: R
Enterococcus faecium [4]
  susceptibility category (S/I/R) of E. faecium: I

## gentamicin
E. faecalis ATCC 29212
  MIC of the antibiotic against E. faecalis ATCC 29212: 8.0 mg/L

## penicillin
S. aureus ATCC 29213
  MIC of the antibiotic against S. aureus ATCC 29213: 1.0 mg/L
